In PMC3962378, “Molecular Mechanism of Strict Substrate Specificity of an Extradiol Dioxygenase, DesB, Derived from Sphingobium sp. SYK-6” (PLoS ONE, 2014):

Molecular target: T1, DesB (Sphingomonas paucimobilis, UniProt Q5NTE5)
T1 construct: overexpressed in E. coli, purified to near homogeneity; swapped homodimer with active sites at the subunit interface; 418 residues; Fe(II) form
T1 sequence (Q5NTE5 1-418): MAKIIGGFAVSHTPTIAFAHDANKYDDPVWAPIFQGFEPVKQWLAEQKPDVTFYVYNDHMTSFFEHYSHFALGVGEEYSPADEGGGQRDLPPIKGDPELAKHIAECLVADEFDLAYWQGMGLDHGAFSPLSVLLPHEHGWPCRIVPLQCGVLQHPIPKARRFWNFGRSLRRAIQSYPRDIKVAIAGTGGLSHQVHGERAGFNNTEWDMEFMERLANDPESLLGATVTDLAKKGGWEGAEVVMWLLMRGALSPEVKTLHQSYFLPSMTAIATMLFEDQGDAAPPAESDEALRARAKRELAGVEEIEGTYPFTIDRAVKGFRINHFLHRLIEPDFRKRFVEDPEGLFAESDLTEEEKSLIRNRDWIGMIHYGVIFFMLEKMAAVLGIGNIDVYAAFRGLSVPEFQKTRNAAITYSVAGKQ
Test: X-ray crystal structure (soak)
Assay type: binding
Conditions: anaerobic, pH 7.75, Fe(II), active site, 2.40 A

SMILES	X-ray crystal structure (soak) (10 mM PCA soak, flipped non-productive binding, not turned over)	X-ray crystal structure (soak) (10 mM gallate soak, further complexes 3WKU, 3WPM (co-crystal), 3WR3, 3WR4)
O=C(O)c1ccc(O)c(O)c1 [PCA]	bound PCA was found in the active site of the anaerobic DesB-PCA complex	
O=C(O)c1cc(O)c(O)c(O)c1 [gallate]		gallate is bound to the active site through several hydrogen bonds
